Measurements as given in patent US12383566B2, “Inhibition of SLC transporter activity or expression to attenuate anthracycline-induced cardiotoxicity” (Northwestern University, priority 2021, dated 2025).

Legend:
hiPSC-CMs [1] = test: Validation of top FDA-approved cardioprotectants against 10 log-doses of doxorubicin (viability LD50); type: cell-based, human; conditions: drug 3 μM, 72 h
Description: (§1) FIGS. 5A, 5B, 5C, 5D, 5E, 5F, and 5G. […] All drugs were used at 3 μM. […] LD50, median lethal dose. […] F, Ventricular fractional shortening at baseline, 1-, 2-, 3-weeks post treatment. […] For (D and G) log-logistic non-linear regression model was used to estimate the value of the four parameters, and t-statistic was used to test for significant difference in LD50 between different groups.
(§2) Next, we sought to expand our screening for novel cardioprotectants by testing the cardioprotective role of the Prestwick drug library that includes 1219 drugs.
(§3) 384-well plate-based cell viability, caspase 3/7 activity assays. […] Luminescence was measured using a VarioSkan Lux Multi-Mode Reader (Thermo Scientific) with an integration time of 0.25 sec. Apoptosis was measured using Caspase 3/7-Glo (Promega) respectively according to manufacturer's instructions with an integration time of 1 sec. 10 μM staurosporine (MedChemExpress) was used as a positive control. Data were analyzed using Prism 7.0 software (GraphPad) using standard dose-response guidelines.

[2] = test system: Mouse model of doxorubicin-induced cardiomyopathy; test: Mouse model of doxorubicin-induced cardiomyopathy, echocardiographic evaluation; type: in vivo, C57BL/6J mice; conditions: desipramine 20 mg kg^−1 day^−1 infusion, doxorubicin 3 mg kg^−1 ip twice weekly, three weeks, P<0.05
Text: Procedures followed were in accordance with Stanford University's institutional guidelines. […] For the control group, we treated mice with corn oil in the same schedule as desipramine administration. We recorded an echocardiogram once a week (day 0, day 7, day 14, and day 21) and terminated the experiment at day 21.
For the control group, we treated mice with corn oil in the same schedule as desipramine administration. We recorded an echocardiogram once a week (day 0, day 7, day 14, and day 21) and terminated the experiment at day 21.
Echocardiographic evaluation. Mice were studied at baseline and weekly during the protocol under light anesthesia with isoflurane (induction 3%, maintenance 1.5%). 2D images in the parasternal short axis were obtained with a GE Vivid 7 ultrasound system (GE Healthcare) equipped with a 13 MHz transducer. Left ventricular end-systolic (LVESD) and end-diastolic (LVEDD) dimensions were measured and left ventricular fractional shortening (FS) was calculated.

hiPSC-CMs [3] = test: Flow cytometry-based doxorubicin uptake quantification (DOX intrinsic fluorescence); type: cell-based, human; conditions: drug 3 μM, doxorubicin 3 μM
Description: Patient-specific doxorubicin-induced cardiotoxicity (DIC) characterization.
Flow cytometry. hiPSCs were dissociated with TrypLE Express (Gibco) for 3 min at RT and 1×10^6 cells were transferred to flow cytometry tubes (Falcon). For staining of surface marker, cells were stained 5 mg ml^−1 (0.5%) BSA (Sigma) in DPBS using 1:20 mouse IgG3 SSEA4-488 (BD Biosciences, 560308) for 30 min at RT then washed twice in DPBS by centrifugation. For intracellular staining, cells were fixed with 4% PFA for 20 min at RT, washed twice with DPBS, and permeabilized with 1% saponin for 15 min at RT, and stained using 1:20 mouse IgG1 POU5F1-647 (BD Biosciences, 560307), and mouse IgG1 NANOG-647 (BD Biosciences, 561300) for 30 min at RT then washed. Isotype controls mouse IgG3-488 (BD Biosciences, 563636) and mouse IgG1-647 (BD Biosciences, 565571) were used to establish gating. Cardiomyocytes were dissociated with Liberase TH as described above, fixed and permeabilized as above, and stained using 1:100 mouse monoclonal IgG1 TNNT2-647 (BD Biosciences, 565744) for 30 min at RT and washed again. Isotype controls mouse IgG1-647 (BD Biosciences, 565571) were used to establish gating. […] All cells were analyzed using a CytoFLEX (Beckman Coulter) with CytExpert 2.0 software.
Flow cytometry-based doxorubicin uptake quantification. On day 14, cardiomyocytes were dissociated and then plated on 12-well plate (2×10^6 per well). […] Cells auto-fluorescence was assayed before doxorubicin treatment and serves as baseline fluorescence.

sodium channel = conditions: among its group (tricyclic antidepressants); cited from earlier work
[4] = in vivo; cited from earlier work
[5] = test system: eight cancer cell lines (HEPG2, DLD1, LNCAP, SK-UT-1, HeLa, U2OS, Hs 578T, MDA-MB-231) and MCF breast cancer cell line; test: Cell viability of cancer cell lines after doxorubicin and desipramine co-treatment; type: cell-based, human; conditions: eight cancer cell lines (breast, liver, colorectal, prostate, uterus, cervix, bone)
Description: as §1
Breast cancer cell lines.

[6] = chronic use; cited from earlier work
hiPSC-CMs [7] = test: Prestwick drug library screening for cardioprotection against DOX (10 μM, 72 h) by cell viability; type: cell-based, human
Description: as §1, §2, §3

SMILES: CNCCCN1c2ccccc2CCc2ccccc21 [desipramine, 3-(5,6-dihydrobenzo[b][1]benzazepin-11-yl)-N-methylpropan-1-amine]
- LD50 of doxorubicin with cardioprotective drug co-treatment (hiPSC-CMs [1]): 10.66 µM
- cardiac function (fractional shortening) attenuation by doxorubicin with drug compared with vehicle [2]: significantly less attenuated
- DOX uptake in cells co-treated with drug plus doxorubicin as compared to doxorubicin only (hiPSC-CMs [3]; after 1 h (P=0.008)): significantly lower
- DOX uptake in cells co-treated with drug plus doxorubicin as compared to doxorubicin only (hiPSC-CMs [3]; after 3 h (P=0.04)): significantly lower
- sodium channel blockade (sodium channel): most potent sodium channel blocker among its group
- typical therapeutic concentration [4]: 100 to 300 ng/mL
- effect of co-treatment on anticancer efficacy of DOX [5]: did not impede the anticancer efficacy of DOX
- cardiotoxicity [6]: causing cardiotoxicity when used chronically
- rank among cardioprotective drugs in Prestwick library screening (hiPSC-CMs [7]; drug 3 μM (24 h pre-treatment + co-treatment)): top ten significant cardio-protectants
- protection against DOX-induced cardiomyocyte death (hiPSC-CMs [7]; drug 3 μM, vs DOX alone, P=0.007): 2.5 fold
